Measurements from patent publication US20260216239A1 (Arizona Board of Regents on Behalf of the University of …, priority 2020, published 2026).
Where two headings read alike, the source gives them in different places.

Key:
[1] = test system: C. scutulatus scutulatus (type B) venom; test: Rabbit model of subcutaneous envenomation, thrombelastography and vital signs; type: in vivo, New Zealand White rabbits; conditions: n=1
Description: Male New Zealand White rabbits (2-3 kg) were procured from Charles River Laboratories (San Diego, CA, USA) and housed within our animal facility and allowed food and water ad libitum for at least 1 week prior to experimentation.
Rabbits were briefly restrained and had one ear closely clipped and cleaned with a 70% isopropyl alcohol pad. A 22 G plastic catheter was placed in the central ear artery and another similar catheter placed in the marginal ear vein; both catheters were connected to an end cap with a rubber diaphragm that allowed the withdrawal of blood samples and administration of medications. The animals were sedated intravenously with 1 mg/kg midazolam, with supplemental doses of 0.5-1 mg/kg provided during experimentation to maintain sedation. […] Heart rate (HR) and SpO2 were recorded at baseline and every 15 min thereafter until the end of the experiment.
An approximately 5 cm by 5 cm area of skin over either flank of the rabbit, midway between the lumbar spine and mid abdomen, was closely shaved and cleaned with a 70% isopropyl alcohol pad. A 1 cm circle was drawn with a felt tip marker in the center of this area, which served as the injection site for venom and antivenom as appropriate. After obtaining baseline HR value, SpO2 value, and the initial blood sample, venom was injected subcutaneously in the middle of the circle through a ⅝ inch long, 25 G needle. […]

Echis leucogaster venom [2] = conditions: previously characterized by this laboratory; cited from earlier work
Echis leucogaster venom [3] = test: Thrombelastography in human plasma of venom procoagulant activity after isolated exposure of venom to compounds; type: biochemical; conditions: venom exposed 5 min to 100 μM CORM-2 in 5% human albumin; venom 1 μg/mL in plasma
[4] = test system: Pseudonaja textilis venom; conditions: previously characterized by this laboratory; cited from earlier work
[5] = test system: C. scutulatus scutulatus venom; conditions: CORM-2 as single agent; cited from earlier work
[6] = large dose of CORM-2 injected intravenously into rabbits; cited from earlier work
acute kidney injury = conditions: up to 30 mg/kg of CORM-2; cited from earlier work
human plasma = type: biochemical
Experimental: Given that the only compounds present with anions different from RuCl3 potentially available to displace Cl in the PBS used was KH2PO4 (1.5 mM) and Na2HPO4 (8.1 mM), a comparison of the effects of 1 and 10 μM RuCl3 (final concentration) dissolved in dH2O or PBS was performed in plasma as a 1% addition (v/v) with coagulation assessed via thrombelastography.
The volumes of subsequently described plasmatic and other additives summed to a final volume of 360 μL. Samples were composed of 320 μL of plasma; 16.4 μL of PBS, 20 μL of 200 mM CaCl2), and 3.6 μL of PBS, RuCl3, or venom solution mixture, which were pipetted into a disposable cup in a Thrombelastograph® hemostasis system (Model 5000, Haemonetics Inc., Braintree, MA, USA) at 37° C., and then rapidly mixed by moving the cup up against and then away from the plastic pin five times. The PBS, RuCl3, or venom solution mixtures was always the last constituent added prior to mixing and data collection. The following viscoelastic parameters described previously (see, Nielsen, V. G.; et al., Biometals 2016, 29, 913-919; Nielsen, V. G.; Losada, P. A. Basic Clin. Pharmacol. Toxicol. 2017, 120, 207-212; Nielsen, V. G.; Frank, N. J. Thromb. Thrombolysis 2019, 47, 533-539; Nielsen, V. G.; Bazzell, C. M. J. Thromb. Thrombolysis 2017, 43, 203-208; Nielsen, V. G.; Matika, R. W. Hum. Exp. Toxicol. 2017, 36, 727-733; Nielsen, V. G.; et al., Toxins 2018, 10, 322; Nielsen, V. G.; et al., Biometals 2018, 31, 51-59; Nielsen, V. G.; Frank, N. et al., Biometals 2018, 31, 951-959; Nielsen, V. G.; et al., Toxins 2019, 11, 94; Nielsen, V. G.; Frank, N. Hum Exp. Toxicol. 2019, 38, 216-226; Nielsen, V. G. J. Thromb. Thrombolysis 2019, 48, 256-262; Nielsen, V. G.; et al., Blood Coagul. Fibrinolysis 2019, 30, 379-384; Nielsen, V. G. J. Thromb. Thrombolysis 2019, 47, 73-79) were measured: time to maximum rate of thrombus generation (TMRTG): this is the time interval (minutes) observed prior to maximum speed of clot growth; maximum rate of thrombus generation (MRTG): this is the maximum velocity of clot growth observed (dynes/cm^2/s); and total thrombus generation (TTG, dynes/cm^2), the final viscoelastic resistance observed after clot formation. Data were collected until the clot strength reached its final plateau (maximum amplitude) that was stable for 3 min.
Thus, experiments wherein RuCl3 was dissolved in either dH2O or PBS were conducted with the final concentration of RuCl3 in plasma being 1 or 10 μM. Data were collected until maximum amplitude was observed.
Specific volumes of subsequently described plasma and chemical additives varied by condition but summated to 360 μl. Sample composition consisted of 320 μl of plasma; 16.4 μl of PBS, 20 μl of 200 mM CaCl2, and 3.6 μl of one of five subsequently described solutions, which were placed into a disposable cup in a computer-controlled Thrombelastograph® hemostasis system (Model 5000, Haemonetics Inc., Braintree, MA, USA) at 37° C., and then rapidly mixed by moving the cup up against and then away from the plastic pin five times before leaving the mixture between the cup and pin.

[7] = 10 vs 1 μM RuCl3 (final) dissolved in PBS
[8] = 10 vs 1 μM RuCl3 (final) dissolved in dH2O

Row | SMILES | plasmatic velocity of clot formation and strength ([1]; 10 mg/kg CORM-2 injected into venom site 5 min after venom 11.2 mg/kg) | plasmatic velocity of clot formation ([1]; 20 mg/kg CORM-2 injected into venom site after venom 11.2 mg/kg) | CORM-2/ iRM Inhibition (Echis leucogaster venom [2]) | procoagulant activity of venom (Echis leucogaster venom [3]) | CORM-2/ iRM Inhibition [4] | anticoagulant effects of venom in vitro [5] | tolerability [6] | protection against acute kidney injury (acute kidney injury) | tolerability (acute kidney injury) | increase in MRTG values (human plasma) | maximum rate of thrombus generation (MRTG) (human plasma; 1 μM RuCl3 dissolved in PBS vs control conditions, preliminary investigation) | total thrombus generation (TTG) (human plasma; 1 and 10 μM RuCl3 in dH2O or PBS, interaction of RuCl3 and fluid) | maximum rate of thrombus generation (MRTG) (human plasma; [7]) | time to maximum rate of thrombus generation (TMRTG) (human plasma; [7]) | maximum rate of thrombus generation (MRTG) (human plasma; [8]) | time to maximum rate of thrombus generation (TMRTG) (human plasma; [8]) | plasmatic TMRTG or TTG values (human plasma; RuCl3 1 μM final in water or PBS vs plasma without RuCl3)
1 | [C-]#[O+].[C-]#[O+].[C-]#[O+].[C-]#[O+].[C-]#[O+].[C-]#[O+].[Cl][Ru][Cl].[Cl][Ru][Cl] [CORM-2, tricarbonyldichlororuthenium(II) dimer] | appeared to preserve the velocity of clot formation and strength until the third hour after venom injection | minimally affected for the three hours after venom injection | Yes | uninhibited | Yes | very effectively abrogated | well tolerated | protected against injury | well tolerated |  |  |  |  |  |  |  | 
2 | [Cl][Ru]([Cl])[Cl] [RuCl3, ruthenium(III) chloride] |  |  |  |  |  |  |  |  |  | 37-61% | increased | decreased | increase | significantly decrease | increase | significant decrease | no significant differences
